Assay results from PubChem BioAssay AID248 (DTP/NCI, 2004).
Several values for one entry are separate records, joined by “and”; a condition that tells them apart may be missing. Identical values can stand only once. Inconclusive results and toxic doses are left out. Rule as the data show it: active = T/C of 150% or more; inactive = T/C below 125%.

Tested on: L1210 leukemia ip in BDF1 mice, survival T/C
Assay: NCI In Vivo Anticancer Drug Screen. Data for tumor model L1210 Leukemia (intraperitoneal) in B6D2F1 (BDF1) mice
Details: endpoint: mean survival time, higher = longer survival
Outline: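 Tumor was transplanted into mice, which were then dosed with test compound or vehicle alone. Survival was recorded for each group, and the treated figure was expressed relative to the control figure.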

[1] = dose: 100.0 mg/kg/injection, schedule: Q01DX009 (ip), vehicle: acetone
[2] = dose: 100.0 mg/kg/injection, schedule: Q04DX003 (ip), vehicle: acetone
[3] = dose: 100.0 mg/kg/injection, schedule: Q04DX003 (ip), vehicle: saline with Tween-80
[4] = dose: 200.0 mg/kg/injection, schedule: Q04DX003 (ip), vehicle: saline with Tween-80
[5] = dose: 400.0 mg/kg/injection, schedule: Q04DX003 (ip), vehicle: saline with Tween-80
[6] = dose: 100.0 mg/kg/injection, schedule: Q04DX003 (ip), vehicle: Klucel (hydroxypropylcellulose) (HPC)
[7] = dose: 200.0 mg/kg/injection, schedule: Q04DX003 (ip), vehicle: Klucel (hydroxypropylcellulose) (HPC)
[8] = dose: 100.0 mg/kg/injection, schedule: Q01DX001 (ip), vehicle: saline with Tween-80
[9] = dose: 200.0 mg/kg/injection, schedule: Q01DX001 (ip), vehicle: saline with Tween-80
[10] = dose: 400.0 mg/kg/injection, schedule: Q01DX001 (ip), vehicle: saline with Tween-80
[11] = dose: 100.0 mg/kg/injection, schedule: Q01DX009 (ip), vehicle: saline
[12] = dose: 100.0 mg/kg/injection, schedule: Q01DX009 (ip), vehicle: Klucel (hydroxypropylcellulose) (HPC)
[13] = dose: 200.0 mg/kg/injection, schedule: Q01DX009 (ip), vehicle: Klucel (hydroxypropylcellulose) (HPC)
[14] = dose: 400.0 mg/kg/injection, schedule: Q01DX009 (ip), vehicle: Klucel (hydroxypropylcellulose) (HPC)
[15] = dose: 100.0 mg/kg/injection, schedule: Q01DX009 (ip), vehicle: saline with Tween-80
[16] = dose: 200.0 mg/kg/injection, schedule: Q01DX009 (ip), vehicle: saline with Tween-80
[17] = dose: 400.0 mg/kg/injection, schedule: Q01DX009 (ip), vehicle: saline with Tween-80
[18] = dose: 50.0 mg/kg/injection, schedule: Q01DX009 (ip), vehicle: saline with Tween-80

Measured: T/C

Cc1ccc(/C=C/S(=O)(=O)c2ccccc2)cc1
inactive: dose: 100.0 mg/kg/injection, schedule: Q01DX001 (ip), vehicle: acetone 109 % of control | [1] 87 % of control | [2] 97 % of control | dose: 200.0 mg/kg/injection, schedule: Q01DX001 (ip), vehicle: acetone 98 % of control | dose: 200.0 mg/kg/injection, schedule: Q01DX009 (ip), vehicle: acetone 87 % of control | dose: 200.0 mg/kg/injection, schedule: Q04DX003 (ip), vehicle: acetone 103 % of control | dose: 400.0 mg/kg/injection, schedule: Q01DX001 (ip), vehicle: acetone 98 % of control | dose: 400.0 mg/kg/injection, schedule: Q01DX009 (ip), vehicle: acetone 88 % of control | dose: 400.0 mg/kg/injection, schedule: Q04DX003 (ip), vehicle: acetone 105 % of control

O=C(C1=CC=CC1=P(c1ccccc1)(c1ccccc1)c1ccccc1)C(Cl)(Cl)Cl
inactive: [3] 96 % of control | [4] 95 % of control | [5] 96 % of control

N#Cc1sc2ccccc2c1CBr
inactive: dose: 6.25 mg/kg/injection, schedule: Q01DX009 (ip), vehicle: Klucel (hydroxypropylcellulose) (HPC) 93 % of control | dose: 12.5 mg/kg/injection, schedule: Q01DX009 (ip), vehicle: Klucel (hydroxypropylcellulose) (HPC) 94 % of control | dose: 25.0 mg/kg/injection, schedule: Q01DX009 (ip), vehicle: Klucel (hydroxypropylcellulose) (HPC) 100 % of control | [6] 100 % of control | [7] 94 % of control

Nc1nc(SCc2ccccc2)c2ncnnc2n1
inactive: [8] 97 % of control | [9] 103 % of control | [10] 98 % of control

C[N+](C)(C)C12CCCCC1S(=O)(=O)C2 (stereo unspecified)
inactive: dose: 75.0 mg/kg/injection, schedule: Q01DX001 (ip), vehicle: saline 108 % of control

CCCN1CC2=C1C(=O)c1ccccc1C2=O
inactive: dose: 100.0 mg/kg/injection, schedule: Q01DX001 (ip), vehicle: other 97 % of control | dose: 200.0 mg/kg/injection, schedule: Q01DX001 (ip), vehicle: other 93 % of control | dose: 400.0 mg/kg/injection, schedule: Q01DX001 (ip), vehicle: other 87 % of control

COc1ccccc1OCCOCCN(C/C=C(\C)CCC=C(C)C)C/C=C(\C)CCC=C(C)C
inactive: dose: 50.0 mg/kg/injection, schedule: Q01DX009 (ip), vehicle: saline 100 % of control | [11] 96 % of control | [6] 102 % of control | [7] 98 % of control

CC1CN(c2ccccc2)CN1c1ccccc1 (stereo unspecified)
inactive: dose: 100.0 mg/kg/injection, schedule: Q04DX002 (sc), vehicle: olive oil, sesame oil, peanut oil 94 % of control | dose: 200.0 mg/kg/injection, schedule: Q04DX002 (sc), vehicle: olive oil, sesame oil, peanut oil 91 % of control | dose: 400.0 mg/kg/injection, schedule: Q04DX002 (sc), vehicle: olive oil, sesame oil, peanut oil 102 % of control

OCC1(O)OCC(O)C(O)C1O (stereo unspecified)
inactive: [11] 89 % of control | dose: 200.0 mg/kg/injection, schedule: Q01DX009 (ip), vehicle: saline 94 % of control | dose: 400.0 mg/kg/injection, schedule: Q01DX009 (ip), vehicle: saline 90 % of control | dose: 800.0 mg/kg/injection, schedule: Q01DX009 (ip), vehicle: saline 90 % of control

CCOC(=O)c1ccc(NC(=O)Oc2cc(C)ccc2C)cc1
inactive: [12] 93 % of control | [13] 92 % of control | [14] 90 % of control

CC(Cl)CNC(=O)Nc1cccc2c1CCCC2 (stereo unspecified)
inactive: dose: 50.0 mg/kg/injection, schedule: Q01DX001 (ip), vehicle: saline with Tween-80 103 % of control | [8] 100 % of control | [15] 96 % of control | [9] 94 % of control | [16] 95 % of control | [10] 91 % of control | [17] 90 % of control

O=C(O)C1C2C=CC(C2)C1c1ccccc1 (stereo unspecified)
inactive: [15] 101 % of control | [3] 97 % of control | [16] 97 % of control | [4] 93 % of control | [17] 98 % of control | [5] 114 % of control

OC1CC[N-]CC1.OC1CC[N-]CC1.[Cl][Pt+2]([Cl])([Cl])[Cl]
inactive: dose: 12.5 mg/kg/injection, schedule: Q01DX009 (ip), vehicle: saline with Tween-80 100 % of control | dose: 25.0 mg/kg/injection, schedule: Q01DX009 (ip), vehicle: saline with Tween-80 103 % of control | dose: 25.0 mg/kg/injection, schedule: Q04DX003 (ip), vehicle: saline with Tween-80 100 % of control | [18] 92 % of control | dose: 50.0 mg/kg/injection, schedule: Q04DX003 (ip), vehicle: saline with Tween-80 107 % of control | [3] 112 % of control and 119 % of control

Ic1ccc(/C=C2\C=Cc3ccccc32)cc1
inactive: dose: 100.0 mg/kg/injection, schedule: Q01DX001 (ip), vehicle: carboxymethylcellulose (CMC) 100 % of control | dose: 200.0 mg/kg/injection, schedule: Q01DX001 (ip), vehicle: carboxymethylcellulose (CMC) 100 % of control | dose: 400.0 mg/kg/injection, schedule: Q01DX001 (ip), vehicle: carboxymethylcellulose (CMC) 100 % of control

NC(=S)N/N=C(/C(=O)O)c1ccc([N+](=O)[O-])cc1
inactive: dose: 100.0 mg/kg/injection, schedule: Q01DX001 (ip), vehicle: Klucel (hydroxypropylcellulose) (HPC) 93 % of control | [6] 104 % of control | dose: 200.0 mg/kg/injection, schedule: Q01DX001 (ip), vehicle: Klucel (hydroxypropylcellulose) (HPC) 115 % of control | [7] 98 % of control | dose: 400.0 mg/kg/injection, schedule: Q01DX001 (ip), vehicle: Klucel (hydroxypropylcellulose) (HPC) 96 % of control | dose: 400.0 mg/kg/injection, schedule: Q04DX003 (ip), vehicle: Klucel (hydroxypropylcellulose) (HPC) 93 % of control

CNC(=O)NNC(=O)CNC(=O)Nc1ccc(Cl)c(Cl)c1
inactive: [12] 106 % of control | [13] 93 % of control | [14] 97 % of control

ClCc1cc(Cl)c(Cl)cc1Cl
inactive: dose: 25.0 mg/kg/injection, schedule: Q01DX009 (ip), vehicle: acetone 93 % of control | dose: 50.0 mg/kg/injection, schedule: Q01DX009 (ip), vehicle: acetone 92 % of control | [1] 90 % of control | [2] 100 % of control | dose: 150.0 mg/kg/injection, schedule: Q01DX009 (ip), vehicle: acetone 95 % of control

Cc1ccccc1NC(=O)NCCBr
inactive: [18] 95 % of control | [15] 95 % of control

C=Cc1ccccc1 (tested in a mixture with another compound)
inactive: dose: 75.0 mg/kg/injection, schedule: Q01DX001 (ip), vehicle: other 101 % of control | dose: 150.0 mg/kg/injection, schedule: Q01DX001 (ip), vehicle: other 97 % of control | dose: 300.0 mg/kg/injection, schedule: Q01DX001 (ip), vehicle: other 87 % of control

Cc1[nH]nc2c(=O)[nH]c3ccccc3c12
inactive: dose: 18.75 mg/kg/injection, schedule: Q01DX001 (ip), vehicle: Klucel (hydroxypropylcellulose) (HPC) 89 % of control | dose: 37.5 mg/kg/injection, schedule: Q01DX001 (ip), vehicle: Klucel (hydroxypropylcellulose) (HPC) 86 % of control
